Assay results: patent US8921364B2, “Modulators of calcium release-activated calcium channel” (Rhizen Pharmaceuticals SA, priority 2009, dated 2014)
Where a name gives a salt, the structure may show the parent alone. Read-outs that look alike come from different tables or passages of the source.

Molecular target: CRAC channels (Homo sapiens (Human), UniProt Q96D31)
Experiment: In-vitro CRAC channel inhibition assay in Jurkat cells (thapsigargin-induced calcium influx)
Type: cell-based
Procedure: Inhibition of CRAC channels was determined following thapsigargin (Sigma, Cat # T9033) induced endoplasmic calcium release in Jurkat cells. […] Cells were centrifuged and re-suspended in equal volumes ° f Ca^2+ and Mg^2+ free Hanks buffer and Fluo-8 NW dye (ABD Bioquest, Inc., Sunnyvale, Calif.) loading solution at 2×10^5 cells/100 μl/well in 96-well black plate. Plate is incubated at 37° C., 5% CO2 for 30 min followed by further 15 min incubation at room temperature. Test compounds (DMSO stocks diluted in Ca^2+ and Mg^2+ free Hanks buffer) at desired concentrations were added to the wells and incubated for […] Thapsigargin (1 μM final concentration) was added to the wells and incubated for 15 min to inhibit the Sarco-endoplasmic reticulum Ca^2+ ATPase pump thereby depleting endoplasmic calcium and raising cytosolic calcium concentrations. Store-operated calcium entry was initiated by adding extracellular Ca^2+ to a final concentration of 1.8 mM. Fluorescence was monitored over […] on a plate reader (BMG Labtech., Germany) with excitation at 485 nm and an emission wavelength at 520 nm. Data were analyzed using GraphPad Prism. IC50 for each compound was determined based on the percent inhibition of thapsigargin-induced calcium influx into cells.

[1] = Jurkat cells, thapsigargin-induced calcium influx

Chain of CRAC channels (Q96D31 whole entry): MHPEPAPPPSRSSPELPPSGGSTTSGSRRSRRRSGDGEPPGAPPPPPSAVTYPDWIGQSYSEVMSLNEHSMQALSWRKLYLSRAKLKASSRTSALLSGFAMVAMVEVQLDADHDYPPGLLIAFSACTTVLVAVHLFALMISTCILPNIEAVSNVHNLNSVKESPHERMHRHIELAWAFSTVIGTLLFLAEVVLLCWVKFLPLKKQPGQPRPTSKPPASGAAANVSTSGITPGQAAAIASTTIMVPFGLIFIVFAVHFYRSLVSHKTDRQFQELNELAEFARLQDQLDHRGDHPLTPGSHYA

IC50 [1] [nM]	Molecule	also measured
36.4	Cc1ccccc1C(=O)Nc1ccc(-n2nc(C3CC3)cc2C2CC2)cc1 [Example 7, N-[4-(3,5-dicyclopropyl-1H-pyrazol-1-yl)phenyl]-2-methylbenzamide]	
124	Cc1noc(C)c1C(=O)Nc1ccc(-n2nc(C(F)(F)F)cc2C2CC2)cc1 [Example 57, N-{4-[5-cyclopropyl-3-(trifluoromethyl)-1H-pyrazol-1-yl]phenyl}-3,5-dimethylisoxazole-4-carboxamide]	
	N-{4-[3-cyclopropyl-5-(difluoromethyl)-1H-pyrazol-1-yl]-3-fluorophenyl}-2,6-difluorobenzamide and N-{4-[5-cyclopropyl-3-(difluoromethyl)-1H-pyrazol-1-yl]-3-fluorophenyl}-2,6-difluorobenzamide [Example 135]	% inhibition (1 uM) [1]: 100%
	Cc1oncc1C(=O)Nc1ccc(-n2nc(C3CC3)cc2C2CC2)cc1 [Example 4, N-[4-(3,5-dicyclopropyl-1H-pyrazol-1-yl)phenyl]-5-methylisoxazole-4-carboxamide]	IC50: 256 nM
	Cc1ncccc1C(=O)Nc1ccc(-n2nc(C(F)(F)F)cc2C2CC2)nc1.Cl [Example 112, N-{6-[5-cyclopropyl-3-(trifluoromethyl)-1H-pyrazol-1-yl]pyridin-3-yl}-2-methyl nicotinamide hydrochloride]	% inhibition (1 uM) [1]: 36.44%
70.3	O=C(Nc1ccc(-n2nc(C(F)(F)F)cc2C2CC2)nc1)c1cccc(F)c1F [Example 107, N-{6-[5-cyclopropyl-3-(trifluoromethyl)-1H-pyrazol-1-yl]pyridin-3-yl}-2,3-difluorobenzamide]	
35.7	Cc1nnsc1C(=O)Nc1ccc(-n2nc(C(F)(F)F)cc2C2CC2)c(F)c1 [Example 82, N-{4-[5-cyclopropyl-3-(trifluoromethyl)-1H-pyrazol-1-yl]-3-fluorophenyl}-4-methyl-1,2,3-thiadiazole-5-carboxamide]	
145	O=C(Nc1ccc(-n2nc(C3CC3)cc2C2CC2)c(F)c1)c1c(F)cccc1F [Example 33, N-[4-(3,5-dicyclopropyl-1H-pyrazol-1-yl)-3-fluorophenyl]-2,6-difluorobenzamide]	
72.1	O=C(Nc1c(F)cccc1F)c1ccc(-n2nc(C(F)(F)F)cc2C2CC2)nc1 [Example 122, 6-[5-cyclopropyl-3-(trifluoromethyl)-1H-pyrazol-1-yl]-N-(2,6-difluorophenyl) nicotinamide]	
99.7	O=C(Nc1c(F)cccc1F)c1ccc(-n2nc(C(F)(F)F)cc2C2CC2)c(F)c1 [Example 100, 4-[5-cyclopropyl-3-(trifluoromethyl)-1H-pyrazol-1-yl]-N-(2,6-difluorophenyl)-3-fluorobenzamide]	
20.4	O=C(Nc1ccc(-n2nc(C(F)(F)F)cc2C2CC2)cc1)c1ccncc1F [Example 67, N-{4-[5-cyclopropyl-3-(trifluoromethyl)-1H-pyrazol-1-yl]phenyl}-3-fluoroisonicotinamide]	
373	Cc1ncsc1C(=O)Nc1ccc(-n2nc(C(F)(F)F)cc2CF)cc1 [Example 125, N-{4-[5-(fluoromethyl)-3-(trifluoromethyl)-1H-pyrazol-1-yl]phenyl}-4-methylthiazole-5-carboxamide]	
50.6	O=C(Nc1ccc(-n2nc(C(F)(F)F)cc2C2CC2)nc1)c1c(F)cccc1F [Example 108, N-{6-[5-cyclopropyl-3-(trifluoromethyl)-1H-pyrazol-1-yl]pyridin-3-yl}-2,6-difluorobenzamide]	
295	O=C(Nc1cnc(-n2nc(C(F)(F)F)cc2C2CC2)nc1)c1c(F)cccc1F [Example 124, N-{2-[5-cyclopropyl-3-(trifluoromethyl)-1H-pyrazol-1-yl]pyrimidin-5-yl}-2,6-difluorobenzamide]	
48.2	Cc1ncsc1C(=O)Nc1ccc(-n2nc(C(F)(F)F)cc2C2CC2)c(F)c1 [Example 83, N-{4-[5-cyclopropyl-3-(trifluoromethyl)-1H-pyrazol-1-yl]-3-fluorophenyl}-4-methylthiazole-5-carboxamide]	
120	Cc1ccccc1C(=O)Nc1ccc(-n2nc(C(F)(F)F)cc2C2CC2)cc1 [Example 60, N-{4-[5-cyclopropyl-3-(trifluoromethyl)-1H-pyrazol-1-yl]phenyl}-2-methylbenzamide]	
62.6	O=C(Nc1ccc(-n2nc(C(F)(F)F)cc2C2CC2)nc1)c1ccncc1 [Example 113, N-{6-[5-cyclopropyl-3-(trifluoromethyl)-1H-pyrazol-1-yl]pyridin-3-yl}isonicotinamide hydrochloride]	
851	Cc1ncsc1C(=O)Nc1ccc(-n2nc(C3CC3)cc2C2CC2)nc1 [Example 39, N-[6-(3,5-dicyclopropyl-1H-pyrazol-1-yl)pyridin-3-yl]-4-methylthiazole-5-carboxamide hydrochloride]	

IC50 [1] [nM]	Molecule	also measured
52.6	Cc1ncsc1C(=O)Nc1ccc(-n2nc(C(F)(F)F)cc2C(F)F)cc1 [Example 126, N-{4-[5-(difluoromethyl)-3-(trifluoromethyl)-1H-pyrazol-1-yl]phenyl}-4-methyl thiazole-5-carboxamide]	
457	O=C(Cc1ccccc1)Nc1ccc(-n2nc(C3CC3)cc2C2CC2)cc1 [Example 19, N-[4-(3,5-dicyclopropyl-1H-pyrazol-1-yl)phenyl]-2-phenylacetamide]	
47.2	O=C(Nc1ccc(-n2nc(C(F)(F)F)cc2C2CC2)nc1)c1cccnc1 [Example 111, N-{6-[5-cyclopropyl-3-(trifluoromethyl)-1H-pyrazol-1-yl]pyridin-3-yl}nicotinamide hydrochloride]	
37.6	O=C(Nc1ccc(-n2nc(C(F)(F)F)cc2C2CC2)nc1)c1ccncc1F [Example 114, N-{6-[5-cyclopropyl-3-(trifluoromethyl)-1H-pyrazol-1-yl]pyridin-3-yl}-3-fluoroisonicotinamide]	
62.4	Cc1nnsc1C(=O)Nc1ccc(-n2nc(C3CC3)cc2C2CC2)cc1 [Example 1, N-[4-(3,5-dicyclopropyl-1H-pyrazol-1-yl)phenyl]-4-methyl-1,2,3-thiadiazole-5-carboxamide]	
34.1	Cc1ncsc1NC(=O)c1ccc(-n2nc(C(F)(F)F)cc2C2CC2)cc1 [Example 78, 4-[5-cyclopropyl-3-(trifluoromethyl)-1H-pyrazol-1-yl]-N-(4-methylthiazol-5-yl)benzamide]	
150	Cc1nnsc1C(=O)Nc1ccc(-n2nc(C(F)(F)F)cc2C2CC2)nc1 [Example 101, N-{6-[5-cyclopropyl-3-(trifluoromethyl)-1H-pyrazol-1-yl]pyridin-3-yl}-4-methyl-1,2,3-thiadiazole-5-carboxamide]	
20.8	Cc1oncc1C(=O)Nc1ccc(-n2nc(C(F)(F)F)cc2C2CC2)c(F)c1 [Example 84, N-{4-[5-cyclopropyl-3-(trifluoromethyl)-1H-pyrazol-1-yl]-3-fluorophenyl}-5-methylisoxazole-4-carboxamide]	
48	Cc1ncsc1CNc1ccc(-n2nc(C(F)(F)F)cc2C2CC2)cc1 [Example 74, 4-[5-cyclopropyl-3-(trifluoromethyl)-1H-pyrazol-1-yl]-N-[(4-methylthiazol-5-yl)methyl]aniline]	
130	O=C(Nc1ccc(-n2nc(C3CC3)cc2C2CC2)cc1)c1c(Cl)cncc1Cl [Example 17, 3,5-dichloro-N-(4-(3,5-dicyclopropyl-1H-pyrazol-1-yl)phenyl)isonicotinamide]	
81.2	Cc1ncncc1C(=O)Nc1ccc(-n2nc(C(F)(F)F)cc2C2CC2)c(F)c1 [Example 93, N-{4-[5-cyclopropyl-3-(trifluoromethyl)-1H-pyrazol-1-yl]-3-fluorophenyl}-4-methylpyrimidine-5-carboxamide]	
124	O=C(Nc1c(F)cccc1F)c1ccc(-n2nc(C(F)(F)F)cc2C2CC2)cc1 [Example 79, 4-[5-cyclopropyl-3-(trifluoromethyl)-1H-pyrazol-1-yl]-N-(2,6-difluorophenyl)benzamide]	
436	O=C(Nc1ccc(-n2nc(C3CC3)cc2C2CC2)nc1)c1c(F)cccc1F [Example 45, N-[6-(3,5-dicyclopropyl-1H-pyrazol-1-yl)pyridin-3-yl]-2,6-difluorobenzamide hydrochloride]	
60	O=C(Nc1ccc(-n2nc(C(F)(F)F)cc2C2CC2)nc1)c1ccccc1F [Example 106, N-(6-(5-cyclopropyl-3-(trifluoromethyl)-1H-pyrazol-1-yl)pyridin-3-yl)-2-fluorobenzamide]	
23	Cc1ccccc1C(=O)Nc1ccc(-n2nc(C(F)(F)F)cc2C2CC2)nc1 [Example 104, N-{6-[5-cyclopropyl-3-(trifluoromethyl)-1H-pyrazol-1-yl]pyridin-3-yl}-2-methylbenzamide]	
72	Cc1ncsc1C(=O)Nc1ccc(-n2nc(C(F)(F)F)cc2C2CC2)cc1 [Example 53, N-{4-[5-cyclopropyl-3-(trifluoromethyl)-1H-pyrazol-1-yl]phenyl}-4-methylthiazole-5-carboxamide]	
207	Cc1ncsc1C(=O)Nc1ccc(-n2nc(C3CC3)cc2C2CC2)cc1 [Example 2, N-[4-(3,5-dicyclopropyl-1H-pyrazol-1-yl)phenyl]-4-methylthiazole-5-carboxamide]	
60.3	Cc1nnsc1C(=O)Nc1ccc(-n2nc(C3CC3)cc2C2CC2)c(F)c1 [Example 28, N-[4-(3,5-dicyclopropyl-1H-pyrazol-1-yl)-3-fluorophenyl]-4-methyl-1,2,3-thiadiazole-5-carboxamide]	
